Experiments:
Beta-secretase 1 [1] = target: T1, Beta-secretase 1 (Homo sapiens, UniProt P56817); experiment: Inhibition of BACE1 in human HEK293 cells overexpressing APP with Swedish mutation assessed as inhibition of amyloid beta 40 production; type: cell-based
Beta-secretase 1 [2] = target: T1, Beta-secretase 1; experiment: Binding affinity to BACE assessed as displacement of [3H]BMS-599240

T1 sequence (P56817 whole entry): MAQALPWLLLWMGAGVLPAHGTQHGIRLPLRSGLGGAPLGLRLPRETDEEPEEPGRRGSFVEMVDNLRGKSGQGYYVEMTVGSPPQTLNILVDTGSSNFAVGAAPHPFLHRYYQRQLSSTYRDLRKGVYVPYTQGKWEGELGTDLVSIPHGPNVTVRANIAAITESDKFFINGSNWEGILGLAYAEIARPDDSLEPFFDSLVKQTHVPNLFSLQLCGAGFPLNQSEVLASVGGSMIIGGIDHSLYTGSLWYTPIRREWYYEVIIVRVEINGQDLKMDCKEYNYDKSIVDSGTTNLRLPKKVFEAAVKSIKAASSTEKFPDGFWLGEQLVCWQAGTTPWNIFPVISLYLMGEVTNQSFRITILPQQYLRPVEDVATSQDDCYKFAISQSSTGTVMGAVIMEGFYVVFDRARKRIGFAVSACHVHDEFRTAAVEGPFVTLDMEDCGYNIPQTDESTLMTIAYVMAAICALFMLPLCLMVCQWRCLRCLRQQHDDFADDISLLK

SMILES	IC50 (Beta-secretase 1 [1]; read-out: IC50) [nM]	IC50 (Beta-secretase 1 [2]; read-out: IC50) [nM]	IC50 (Beta-secretase 1 [1]; hek293)	IC50 (Beta-secretase 1 [2])
CCCN(CCC)C(=O)c1cc(C(C)=O)cc(C(=O)N[C@@H](Cc2cc(F)cc(F)c2)[C@H](O)CNCc2cccc(OC)c2)c1	19	4		
COc1cccc(CNC[C@@H](O)[C@H](Cc2cc(F)cc(F)c2)NC(=O)c2cc(C(C)=O)cc(C(=O)N[C@H](C)c3ccccc3)c2)c1	73	20		
CCCN(CCC)C(=O)c1cc(CCO)cc(C(=O)N[C@@H](Cc2cc(F)cc(F)c2)[C@H](O)CNCc2cccc(OC)c2)c1	53	10		
CCCN(CCC)C(=O)c1cc(C(=O)N[C@@H](Cc2cc(F)cc(F)c2)[C@H](O)CNCc2cccc(OC)c2)cc(C(C)NC(C)=O)c1 (stereo partly specified)	45	20		
CO/N=C(/C)c1cc(C(=O)NC(C)c2ccc(F)cc2)cc(C(=O)N[C@@H](Cc2cc(F)cc(F)c2)[C@H](O)CNCc2cccc(OC)c2)c1 (stereo partly specified)	276	24		
COc1cccc(CNC[C@@H](O)[C@H](Cc2cc(F)cc(F)c2)NC(=O)c2cc(/C(C)=N/OCC(C)C)cc(N(c3ccccc3)S(C)(=O)=O)c2)c1		242	Not Active	
COc1cccc(CNC[C@@H](O)[C@H](Cc2cc(F)cc(F)c2)NC(=O)c2cccc(N(c3ccccc3)S(C)(=O)=O)c2)c1	137	11		
CCCN(CCC)C(=O)c1cc(C(=O)N[C@@H](Cc2cc(F)cc(F)c2)[C@H](O)CNCc2cccc(OC)c2)cc(/C(C)=N\OCc2ccccc2)c1	534	67		
CCCN(CCC)C(=O)c1cc(C(=O)N[C@@H](Cc2cc(F)cc(F)c2)[C@H](O)CNCc2cccc(OC)c2)cc(C(C)O)c1 (stereo partly specified)	12	2		
CCCN(CCC)C(=O)c1cc(CC(COC)OC)cc(C(=O)N[C@@H](Cc2cc(F)cc(F)c2)[C@H](O)CNCc2cccc(OC)c2)c1 (stereo partly specified)		> 2000	Not Active	
CO/N=C(\C)c1cc(C(=O)N[C@@H](Cc2cc(F)cc(F)c2)[C@H](O)CNCc2cccc(OC)c2)cc(N(c2ccccc2)S(C)(=O)=O)c1	86	10		
CCCN(CCC)C(=O)c1cc(C(=O)N[C@@H](Cc2cc(F)cc(F)c2)[C@H](O)CNCc2cccc(OC)c2)cc(/C(C)=N\O)c1	27	3		
CCCN(CCC)C(=O)c1cc(C(=O)N[C@@H](Cc2cc(F)cc(F)c2)[C@H](O)CNCc2cccc(OC)c2)cc(/C(C)=N\OCC(C)C)c1	367	55		
COc1cccc(CNC[C@@H](O)[C@H](Cc2cc(F)cc(F)c2)NC(=O)c2cc(/C(C)=N\O)cc(N(C)S(C)(=O)=O)c2)c1	429	76		
CO/N=C(/C)c1cc(C(=O)N[C@@H](Cc2cc(F)cc(F)c2)[C@H](O)CNCc2cccc(OC)c2)cc(N2CCCCS2(=O)=O)c1	345	52		
COc1cccc(CNC[C@@H](O)[C@H](Cc2cc(F)cc(F)c2)NC(=O)c2cccc(C(=O)N[C@H](C)c3ccccc3)c2)c1	198	89		
COc1cccc(CNC[C@@H](O)[C@H](Cc2cc(F)cc(F)c2)NC(=O)c2cc(C(C)=O)cc(N(c3ccccc3)S(C)(=O)=O)c2)c1	> 263	17		
C=CCO/N=C(/C)c1cc(C(=O)N[C@@H](Cc2cc(F)cc(F)c2)[C@H](O)CNCc2cccc(OC)c2)cc(C(=O)N(CCC)CCC)c1	120	10		
COc1cccc(CNC[C@@H](O)[C@H](Cc2cc(F)cc(F)c2)NC(=O)c2cc(/C(C)=N\OCc3ccccc3)cc(N3CCCCS3(=O)=O)c2)c1	821	31		
CCCO/N=C(/C)c1cc(C(=O)N[C@@H](Cc2cc(F)cc(F)c2)[C@H](O)CNCc2cccc(OC)c2)cc(N(c2ccccc2)S(C)(=O)=O)c1	184	6		
COc1cccc(CNC[C@@H](O)[C@H](Cc2cc(F)cc(F)c2)NC(=O)c2cc(C(C)=O)cc(C(=O)NC(C)c3ccc(F)cc3)c2)c1 (stereo partly specified)	91	51		
COc1cccc(CNC[C@@H](O)[C@H](Cc2cc(F)cc(F)c2)NC(=O)c2cc(C(C)O)cc(N3CCCCS3(=O)=O)c2)c1 (stereo partly specified)	305	43		
COc1cccc(CNC[C@@H](O)[C@H](Cc2cc(F)cc(F)c2)NC(=O)c2cc(C(C)O)cc(N(c3ccccc3)S(C)(=O)=O)c2)c1 (stereo partly specified)			Not Active	Not Active
COc1cccc(CNC[C@@H](O)[C@H](Cc2cc(F)cc(F)c2)NC(=O)c2cc(/C(C)=N\OCc3ccccc3)cc(N(C)S(C)(=O)=O)c2)c1	> 333	9		

SMILES	IC50 (Beta-secretase 1 [1]; read-out: IC50) [nM]	IC50 (Beta-secretase 1 [2]; read-out: IC50) [nM]	IC50 (Beta-secretase 1 [1]; hek293)	IC50 (Beta-secretase 1 [2])
COc1cccc(CNC[C@@H](O)[C@H](Cc2cc(F)cc(F)c2)NC(=O)c2cccc(N3CCCCS3(=O)=O)c2)c1	182	74		
COc1cccc(CNC[C@@H](O)[C@H](Cc2cc(F)cc(F)c2)NC(=O)c2cc(C(C)=O)cc(N(C)S(C)(=O)=O)c2)c1	559	124		
CCCN(CCC)C(=O)c1cccc(C(=O)N[C@@H](Cc2cc(F)cc(F)c2)[C@H](O)CNCc2cccc(OC)c2)c1	80	31		
C=CCO/N=C(/C)c1cc(C(=O)N[C@@H](Cc2cc(F)cc(F)c2)[C@H](O)CNCc2cccc(OC)c2)cc(N(C)S(C)(=O)=O)c1	363	151		
CCCN(CCC)C(=O)c1cc(CC(C)O)cc(C(=O)N[C@@H](Cc2cc(F)cc(F)c2)[C@H](O)CNCc2cccc(OC)c2)c1 (stereo partly specified)	34	16		
C=CCO/N=C(/C)c1cc(C(=O)N[C@@H](Cc2cc(F)cc(F)c2)[C@H](O)CNCc2cccc(OC)c2)cc(N2CCCCS2(=O)=O)c1	1230	111		
C=CCO/N=C(/C)c1cc(C(=O)N[C@@H](Cc2cc(F)cc(F)c2)[C@H](O)CNCc2cccc(OC)c2)cc(C(=O)N[C@H](C)c2ccccc2)c1	500	86		
CCCN(CCC)C(=O)c1cc(C(=O)N[C@@H](Cc2cc(F)cc(F)c2)[C@H](O)CNCc2cccc(OC)c2)cc(C(C)N)c1 (stereo partly specified)	640	123		
COc1cccc(CNC[C@@H](O)[C@H](Cc2cc(F)cc(F)c2)NC(=O)c2cc(C(=O)N[C@H](C)c3ccccc3)cc(C(C)O)c2)c1 (stereo partly specified)	92	29		
COc1cccc(CNC[C@@H](O)[C@H](Cc2cc(F)cc(F)c2)NC(=O)c2cc(/C(C)=N\O)cc(N(c3ccccc3)S(C)(=O)=O)c2)c1	91	9		
CO/N=C(\C)c1cc(C(=O)N[C@@H](Cc2cc(F)cc(F)c2)[C@H](O)CNCc2cccc(OC)c2)cc(N(C)S(C)(=O)=O)c1	52	60		
COc1cccc(CNC[C@@H](O)[C@H](Cc2cc(F)cc(F)c2)NC(=O)c2cccc(C(=O)NC(C)c3ccc(F)cc3)c2)c1 (stereo partly specified)	266	166		
CCCN(CCC)C(=O)c1cc(C(=O)N[C@@H](Cc2cc(F)cc(F)c2)[C@H](O)CNCc2cccc(OC)c2)cc(/C(C)=N\OC)c1	42	1		
C=CCO/N=C(/C)c1cc(C(=O)NC(C)c2ccc(F)cc2)cc(C(=O)N[C@@H](Cc2cc(F)cc(F)c2)[C@H](O)CNCc2cccc(OC)c2)c1 (stereo partly specified)	530	168		
COc1cccc(CNC[C@@H](O)[C@H](Cc2cc(F)cc(F)c2)NC(=O)c2cc(C(C)=O)cc(N3CCCCS3(=O)=O)c2)c1	248	90		
COc1cccc(CNC[C@@H](O)[C@H](Cc2cc(F)cc(F)c2)NC(=O)c2cc(/C(C)=N\OCC(C)C)cc(N3CCCCS3(=O)=O)c2)c1	2100	428		
COc1cccc(CNC[C@@H](O)[C@H](Cc2cc(F)cc(F)c2)NC(=O)c2cc(C(=O)NC(C)c3ccc(F)cc3)cc(C(C)O)c2)c1 (stereo partly specified)	164	37		
COc1cccc(CNC[C@@H](O)[C@H](Cc2cc(F)cc(F)c2)NC(=O)c2cc(/C(C)=N\O)cc(N3CCCCS3(=O)=O)c2)c1	117	38		
CCCO/N=C(/C)c1cc(C(=O)N[C@@H](Cc2cc(F)cc(F)c2)[C@H](O)CNCc2cccc(OC)c2)cc(N(C)S(C)(=O)=O)c1	217	59		
CO/N=C(/C)c1cc(C(=O)N[C@@H](Cc2cc(F)cc(F)c2)[C@H](O)CNCc2cccc(OC)c2)cc(C(=O)N[C@H](C)c2ccccc2)c1	82	32		
CCCO/N=C(/C)c1cc(C(=O)N[C@@H](Cc2cc(F)cc(F)c2)[C@H](O)CNCc2cccc(OC)c2)cc(N2CCCCS2(=O)=O)c1	205	25		
COc1cccc(CNC[C@@H](O)[C@H](Cc2cc(F)cc(F)c2)NC(=O)c2cc(C(C)O)cc(N(C)S(C)(=O)=O)c2)c1 (stereo partly specified)	122	43		
COc1cccc(CNC[C@@H](O)[C@H](Cc2cc(F)cc(F)c2)NC(=O)c2cccc(N(C)S(C)(=O)=O)c2)c1	80	75		
COc1cccc(CNC[C@@H](O)[C@H](Cc2cc(F)cc(F)c2)NC(=O)c2cc(/C(C)=N\OCC(C)C)cc(N(C)S(C)(=O)=O)c2)c1	> 666	173		

Reference: ChEMBL document CHEMBL1151886, “Synthesis and SAR of hydroxyethylamine based phenylcarboxyamides as inhibitors of BACE” (Bioorg Med Chem Lett, 2009)
